In patent US9930892B2, “Molecules having pesticidal utility, and intermediates, compositions, and processes, related thereto” (Dow AgroSciences LLC, priority 2016, dated 2018):

What was measured:
Format in all cases: in vivo
[1] = system: Beet Armyworm (Spodoptera exigua); experiment: Bioassay on Beet Armyworm (BAW), 128-well diet tray assay; settings: 50 μg/cm^2 on artificial diet, second instar larvae, five to seven days, 25° C.
Procedure: Bioassays on BAW were conducted using a 128-well diet tray assay. One to five second instar BAW larvae were placed in each well (3 mL) of the diet tray that had been previously filled with 1 mL of artificial diet to which 50 μg/cm^2 of the test molecule (dissolved in 50 μL of 90:10 acetone-water mixture) had been applied (to each of eight wells) and then allowed to dry. Trays were covered with a clear self-adhesive cover and held at 25° C., 14:10 light-dark for five to seven days. Percent mortality was recorded for the larvae in each well; activity in the eight wells was then averaged. The results are indicated in the table entitled “Table ABC: Biological Results” (See Table Section).
(§1) Bioassays on BAW and CL were conducted according to the procedures outlined in Example A: Bioassays on Beet Armyworm (“BAW”) and Cabbage Looper (“CL”) using the indicated concentrations.

[2] = system: Cabbage Looper (Trichoplusia ni); experiment: Bioassay on Cabbage Looper (CL), 128-well diet tray assay; settings: 50 μg/cm^2 on artificial diet, second instar larvae, five to seven days, 25° C.
Procedure: Bioassays on CL were conducted using a 128-well diet tray assay. One to five second instar CL larvae were placed in each well (3 mL) of the diet tray that had been previously filled with 1 mL of artificial diet to which 50 μg/cm^2 of the test molecule (dissolved in 50 μL of 90:10 acetone-water mixture) had been applied (to each of eight wells) and then allowed to dry. Trays were covered with a clear self-adhesive cover and held at 25° C., 14:10 light-dark for five to seven days. Percent mortality was recorded for the larvae in each well; activity in the eight wells was then averaged. The results are indicated in the table entitled “Table ABC: Biological Results” (See Table Section).
as §1

[3] = system: Yellow Fever Mosquito (Aedes aegypti); settings: 4000 ppm master plate solution diluted, about 1 day-old larvae, scored on mortality after 3 days
Procedure: Master plates containing 400 μg of a molecule dissolved in 100 μL of dimethyl sulfoxide (DMSO) (equivalent to a 4000 ppm solution) are used. A master plate of assembled molecules contains 15 μL per well. To this plate, 135 μL of a 90:10 water:acetone mixture is added to each well. A robot (Biomek® NXP Laboratory Automation Workstation) is programmed to dispense 15 μL aspirations from the master plate into an empty 96-well shallow plate (“daughter” plate). There are 6 reps (“daughter” plates) created per master. The created daughter plates are then immediately infested with YFM larvae.
The day before plates are to be treated, mosquito eggs are placed in Millipore water containing liver powder to begin hatching (4 g. into 400 mL). After the daughter plates are created using the robot, they are infested with 220 μL of the liver powder/larval mosquito mixture (about 1 day-old larvae). After plates are infested with mosquito larvae, a non-evaporative lid is used to cover the plate to reduce drying. Plates are held at room temperature for 3 days prior to grading. After 3 days, each well is observed and scored based on mortality. The results are indicated in the table entitled “Table ABC: Biological Results” (See Table Section).

Row | Compound | BAW % Control (or Mortality) rating [1] | CL % Control (or Mortality) rating [2] | YFM % Control (or Mortality) rating [3]
1 | O=C(CCC(F)(F)F)NNC(=O)c1ccc(/C(F)=C/C(c2cc(Cl)c(F)c(Cl)c2)C(F)(F)F)cc1C(F)(F)F (stereo not drawn) [F10, (Z)-4-(3-(3,5-Dichloro-4-fluorophenyl)-1,4,4,4-tetrafluorobut-1-en-1-yl)-N′-(4,4,4-trifluorobutanoyl)-2-(trifluoromethyl)benzohydrazide] | A (50-100) | A (50-100) | A (80-100)
2 | O=C(CCC(F)(F)F)NNC(=O)c1ccc(/C(F)=C/C(c2cc(Br)cc(Br)c2)C(F)(F)F)cc1C(F)(F)F (stereo not drawn) [F9, (Z)-4-(3-(3,5-Dibromophenyl)-1,4,4,4-tetrafluorobut-1-en-1-yl)-N′-(4,4,4-trifluorobutanoyl)-2-(trifluoromethyl)benzohydrazide] | A (50-100) | A (50-100) | A (80-100)
3 | CN(NC(=O)c1ccc(/C(F)=C/C(c2ccc(Br)c(Br)c2)C(F)(F)F)cc1C(F)(F)F)C(=O)NCC(F)(F)F (stereo not drawn) [F26, (Z)-2-(4-(3-(3,4-Dibromophenyl)-1,4,4,4-tetrafluorobut-1-en-1-yl)-2-(trifluoromethyl)benzoyl)-1-methyl-N-(2,2,2-trifluoroethyl)hydrazinecarboxamide] | B (More than 0-Less than 50) | B (More than 0-Less than 50) | A (80-100)
4 | CN(NC(=O)c1ccc(/C(F)=C/C(c2ccc(Cl)c(Cl)c2)C(F)(F)F)cc1C(F)(F)F)C(=O)NCC(F)(F)F (stereo not drawn) [F15] | A (50-100) | A (50-100) | A (80-100)
5 | O=C(CCC(F)(F)F)NNC(=O)c1ccc(/C(F)=C/C(c2cc(Br)c(Cl)c(Br)c2)C(F)(F)F)cc1C(F)(F)F (stereo not drawn) [F5, (Z)-4-(3-(3,5-dibromo-4-chlorophenyl)-1,4,4,4-tetrafluorobut-1-en-1-yl)-N′-(4,4,4-trifluorobutanoyl)-2-(trifluoromethyl)benzohydrazide] | A (50-100) | A (50-100) | A (80-100)
6 | CN(NC(=O)c1ccc(/C(F)=C/C(c2cc(Cl)cc(Cl)c2)C(F)(F)F)cc1C(F)(F)F)C(=O)NCC(F)(F)F (stereo not drawn) [F8, (Z)-2-(4-(3-(3,5-Dichlorophenyl)-1,4,4,4-tetrafluorobut-1-en-1-yl)-2-(trifluoromethyl)benzoyl)-1-methyl-N-(2,2,2-trifluoroethyl) hydrazinecarboxamide] | A (50-100) | A (50-100) | A (80-100)
7 | O=C(CCC(F)(F)F)NNC(=O)c1ccc(/C(F)=C/C(c2ccc(Cl)c(Cl)c2)C(F)(F)F)cc1C(F)(F)F (stereo not drawn) [F7, (Z)-4-(3-(3,4-Dichlorophenyl)-1,4,4,4-tetrafluorobut-1-en-1-yl)-N′-(4,4,4-trifluorobutanoyl)-2-(trifluoromethyl)benzohydrazide] | A (50-100) | A (50-100) | A (80-100)
8 | CN(NC(=O)c1ccc(/C(F)=C/C(c2cc(Cl)cc(Br)c2)C(F)(F)F)cc1C(F)(F)F)C(=O)NCC(F)(F)F (stereo not drawn) [F25, (Z)-2-(4-(3-(3-Bromo-5-chlorophenyl)-1,4,4,4-tetrafluorobut-1-en-1-yl)-2-(trifluoromethyl)benzoyl)-1-methyl-N-(2,2,2-trifluoroethyl)hydrazinecarboxamide] | A (50-100) | A (50-100) | A (80-100)
9 | Cc1cc(C(/C=C(\F)c2ccc(C(=O)NN(C)C(=O)NCC(F)(F)F)c(C(F)(F)F)c2)C(F)(F)F)cc(C)c1Cl (stereo not drawn) [F16, (Z)-2-(4-(3-(4-Chloro-3,5-dimethylphenyl)-1,4,4,4-tetrafluorobut-1-en-1-yl)-2-(trifluoromethyl)benzoyl)-1-methyl-N-(2,2,2-trifluoroethyl)hydrazinecarboxamide] | A (50-100) | A (50-100) | A (80-100)
10 | O=C(CCC(F)(F)F)NNC(=O)c1ccc(/C(F)=C/C(c2cc(Cl)c(Br)c(Cl)c2)C(F)(F)F)cc1C(F)(F)F (stereo not drawn) [F27, (Z)-4-(3-(4-Bromo-3,5-dichlorophenyl)-1,4,4,4-tetrafluorobut-1-en-1-yl)-N′-(4,4,4-trifluorobutanoyl)-2-(trifluoromethyl)benzohydrazide] | A (50-100) | A (50-100) | A (80-100)
11 | O=C(CCC(F)(F)F)NNC(=O)c1ccc(/C(F)=C/C(c2cc(Cl)cc(Cl)c2)C(F)(F)F)cc1C(F)(F)F (stereo not drawn) [F6, (Z)-4-(3-(3,5-Dichlorophenyl)-1,4,4,4-tetrafluorobut-1-en-1-yl)-N′-(4,4,4-trifluorobutanoyl)-2-(trifluoromethyl)benzohydrazide] | A (50-100) | A (50-100) | A (80-100)
12 | Cc1cc(C(/C=C(\F)c2ccc(C(=O)NN(C)C(=O)NCC(F)(F)F)c(C(F)(F)F)c2)C(F)(F)F)cc(Cl)c1Cl (stereo not drawn) [F30, (Z)-2-(4-(3-(3,4-Dichloro-5-methylphenyl)-1,4,4,4-tetrafluorobut-1-en-1-yl)-2-(trifluoromethyl)benzoyl)-1-methyl-N-(2,2,2-trifluoroethyl)hydrazine-1-carboxamide] | A (50-100) | A (50-100) | D (No activity noticed in this bioassay)
13 | CN(NC(=O)CCC(F)(F)F)C(=O)c1ccc(/C(F)=C/C(c2cc(Cl)c(Cl)c(Cl)c2)C(F)(F)F)cc1C(F)(F)F (stereo not drawn) [F13, (Z)—N-methyl-4-(1,4,4,4-tetrafluoro-3-(3,4,5-trichlorophenyl)but-1-en-1-yl)-N′-(4,4,4-trifluorobutanoyl)-2-(trifluoromethyl)benzohydrazide] | A (50-100) | A (50-100) | 
14 | CN(NC(=O)c1ccc(/C(F)=C/C(c2cc(Cl)c(F)c(Cl)c2)C(F)(F)F)cc1C(F)(F)F)C(=O)NCC(F)(F)F (stereo not drawn) [F22, (Z)-2-(4-(3-(3,5-Dichloro-4-fluorophenyl)-1,4,4,4-tetrafluorobut-1-en-1-yl)-2-(trifluoromethyl)benzoyl)-1-methyl-N-(2,2,2-trifluoroethyl)hydrazinecarboxamide] | A (50-100) | A (50-100) | A (80-100)
15 | CN(NC(=O)c1ccc(/C(F)=C/C(c2cc(Cl)cc(C(F)(F)F)c2)C(F)(F)F)cc1C(F)(F)F)C(=O)NCC(F)(F)F (stereo not drawn) [PF9, (Z)-2-(4-(3-(3-Chloro-5-(trifluoromethyl)phenyl)-1,4,4,4-tetrafluorobut-1-en-1-yl)-2-(trifluoromethyl)benzoyl)-1-methyl-N-(2,2,2-trifluoroethyl)hydrazine-1-carboxamide] | A (50-100) | A (50-100) | 
16 | CN(NC(=O)c1ccc(/C(F)=C/C(c2cc(Br)cc(Br)c2)C(F)(F)F)cc1C(F)(F)F)C(=O)NCC(F)(F)F (stereo not drawn) [F14, (Z)-2-(4-(3-(3,5-dibromophenyl)-1,4,4,4-tetrafluorobut-1-en-1-yl)-2-(trifluoromethyl)benzoyl)-1-methyl-N-(2,2,2-trifluoroethyl)hydrazinecarboxamide] | A (50-100) | A (50-100) | A (80-100)
17 | CC(F)(F)C(/C=C(\F)c1ccc(C(=O)NNC(=O)NCC(F)(F)F)c(C(F)(F)F)c1)c1cc(Cl)c(Cl)c(Cl)c1 (stereo not drawn) [F12, (Z)-2-(4-(1,4,4-Trifluoro-3-(3,4,5-trichlorophenyl)pent-1-en-1-yl)-2-(trifluoromethyl)benzoyl)-N-(2,2,2-trifluoroethyl)hydrazinecarboxamide] | A (50-100) | A (50-100) | 
